Values quoted from earlier work in patent publication US20190015339A1, “PHARMACEUTICAL COMBINATION FORMULATION” (SHIN POONG PHARMACEUTICAL CO., LTD., priority 2015, published 2019).
Like-named read-outs stand apart in the source and are kept apart here.

Question: Which absolute bioavailability (used as a solution) does the source give for `CCOc1nc2cccc(C(=O)OC(C)OC(=O)OC3CCCCC3)c2n1Cc1ccc(-c2ccccc2-c2nnn[nH]2)cc1` (centres unmarked) [candesartan cilexetil] here?
Answer: Its absolute bioavailability is “about 40%”.

Question: What about the absolute bioavailability (used as a tablet formulation) of the same compound?
Answer: Its absolute bioavailability is “about 15%”.
